Experimental data: ChEMBL document CHEMBL3763028, “Anionic fluoroquinolones as antibacterials against biofilm-producing Pseudomonas aeruginosa” (2016)
≈ marks a conversion by molar mass, not a printed value.

What was measured:
Type in all cases: functional
Pseudomonas aeruginosa [1] = assay: Antipseudomonal activity against Pseudomonas aeruginosa PAO581 in Pseudomonas isolation agar assessed as bacterial growth inhibition at 10 uM by disk diffusion assay; conditions: read-out: DIZ
Pseudomonas aeruginosa [2] = assay: Bactericidal activity against Pseudomonas aeruginosa PAO581 in Luria-Bertani broth by microdilution method
Pseudomonas aeruginosa [3] = assay: Bactericidal activity against Pseudomonas aeruginosa PAO1 in Luria-Bertani broth by microdilution method
Pseudomonas aeruginosa [4] = assay: Antipseudomonal activity against Pseudomonas aeruginosa PAO581 in Luria-Bertani agar assessed as bacterial growth inhibition at 10 uM by disk diffusion assay; conditions: read-out: DIZ
Pseudomonas aeruginosa [5] = assay: Antipseudomonal activity against Pseudomonas aeruginosa PAO1 in Luria-Bertani broth by microdilution method
Pseudomonas aeruginosa [6] = assay: Antipseudomonal activity against Pseudomonas aeruginosa PAO581 in Luria-Bertani broth by microdilution method
Pseudomonas aeruginosa [7] = assay: Antipseudomonal activity against Pseudomonas aeruginosa PAO1 in Pseudomonas isolation agar assessed as bacterial growth inhibition at 10 uM by disk diffusion assay; conditions: read-out: DIZ
Pseudomonas aeruginosa [8] = assay: Antipseudomonal activity against Pseudomonas aeruginosa PAO1 in Luria-Bertani agar assessed as bacterial growth inhibition at 10 uM by disk diffusion assay; conditions: read-out: DIZ
Pseudomonas aeruginosa [9] = assay: Antipseudomonal activity against Pseudomonas aeruginosa PAO1 in Pseudomonas isolation agar assessed as reduction in inhibitory zone size at 10 uM by disk diffusion assay relative to Luria-Bertani agar; set-up: scale not given: the % may be the effect or the level left
Pseudomonas aeruginosa [10] = assay: Antipseudomonal activity against Pseudomonas aeruginosa PAO581 in Pseudomonas isolation agar assessed as reduction in inhibitory zone size at 10 uM by disk diffusion assay relative to Luria-Bertani agar; set-up: scale not given: the % may be the effect or the level left

Compound | zone of inhibition at 10 µM (Pseudomonas aeruginosa [1]) [mm] | MBC (Pseudomonas aeruginosa [2]) [µM] | MBC (Pseudomonas aeruginosa [3]) [µM] | zone of inhibition at 10 µM (Pseudomonas aeruginosa [4]) [mm] | MIC (Pseudomonas aeruginosa [5]) [µM] | MIC (Pseudomonas aeruginosa [6]) [µM] | zone of inhibition at 10 µM (Pseudomonas aeruginosa [7]) [mm] | zone of inhibition at 10 µM (Pseudomonas aeruginosa [8]) [mm] | Activity (Pseudomonas aeruginosa [9]) [%] | Activity (Pseudomonas aeruginosa [10]) [%]
O=CN1CCN(c2cc3c(cc2F)c(=O)c(C(=O)O)cn3C2CC2)CC1 | 9 | 6.25 (≈ 2.25 µg/mL) | 6.25 (≈ 2.25 µg/mL) | 21 | 3.12 (≈ 1.12 µg/mL) | 3.12 (≈ 1.12 µg/mL) | 20 | 18 | – | –
O=C(O)CCC(=O)N1CCN(c2cc3c(cc2F)c(=O)c(C(=O)O)cn3C2CC2)CC1 | 0 | – | – | 0 | – | – | 0 | 0 | – | –
CCn1cc(C(=O)O)c(=O)c2cc(F)c(N3CCN(C(C)=O)C(C)C3)c(F)c21 (stereo unspecified) | 0 | – | – | 0 | – | – | 0 | 0 | – | –
O=C([O-])c1ccccc1C(=O)N1CCN(c2cc3c(cc2F)c(=O)c(C(=O)[O-])cn3C2CC2)CC1.[K+].[K+] | 13 | 12.5 | 6.25 | 31 | 3.12 | 3.12 | 11 | 23 | 53 | 58
CCn1cc(C(=O)O)c(=O)c2cc(F)c(N3CCN(C)CC3)cc21 | 14 | – | – | 19 | – | – | 12 | 18 | – | –
CC(=O)N1CCN(c2cc3c(cc2F)c(=O)c(C(=O)O)cn3C2CC2)CC1 | 13 | – | – | 0 | – | – | 0 | 10 | – | –
COC(=O)CN1CCN(c2cc3c(cc2F)c(=O)c(C(=O)O)cn3C2CC2)CC1 | 0 | – | – | 0 | – | – | 0 | 0 | – | –
O=C(O)c1cn(C2CC2)c2cc(N3CCN(Cc4ccccc4)CC3)c(F)cc2c1=O | 0 | – | – | 13 | – | – | 0 | 0 | – | –
CCCCCCN1CCN(c2cc3c(cc2F)c(=O)c(C(=O)O)cn3C2CC2)CC1 | 0 | – | – | 0 | – | – | 0 | 0 | – | –
O=C(O)CN1CCN(c2cc3c(cc2F)c(=O)c(C(=O)O)cn3C2CC2)CC1 | 0 | – | – | 0 | – | – | 0 | 0 | – | –
NC[C@H]1O[C@H](O[C@H]2[C@H](O)[C@@H](O[C@H]3O[C@H](CO)[C@@H](O)[C@H](N)[C@H]3O)[C@H](N)C[C@@H]2N)[C@H](N)C[C@@H]1O | 17 | 6.25 (≈ 2.92 µg/mL) | 1.56 (≈ 0.729 µg/mL) | 20 | 3.12 (≈ 1.46 µg/mL) | 0.78 (≈ 0.365 µg/mL) | 13 | 18 | – | –
COc1c(N2CCNC(C)C2)c(F)cc2c(=O)c(C(=O)O)cn(C3CC3)c12 (stereo unspecified) | 23 | – | – | 31 | – | – | 21 | 29 | – | –
CCCCN1CCN(c2cc3c(cc2F)c(=O)c(C(=O)O)cn3C2CC2)CC1 | 0 | – | – | 13 | – | – | 0 | 23 | – | –
O=C([O-])c1cn(C2CC2)c2cc(N3CCNCC3)c(F)cc2c1=O.[K+] | 26 | 6.25 | 6.25 | 38 | 1.56 | 1.56 | 24 | 30 | 20 | 32
C[C@H]1COc2c(C3(N)CC3)c(F)cc3c(=O)c(C(=O)O)cn1c23 | 20 | – | – | 30 | – | – | 17 | 25 | – | –
COc1c(N2CCN(C(C)=O)C(C)C2)c(F)cc2c(=O)c(C(=O)O)cn(C3CC3)c12 (stereo unspecified) | 0 | – | – | 0 | – | – | 0 | 0 | – | –
CC1(C)S[C@@H]2[C@H](NC(=O)[C@H](C(=O)O)c3ccsc3)C(=O)N2[C@H]1C(=O)O | 0 | – | – | 0 | – | – | 0 | 0 | – | –
O=C(O)CCCC(=O)N1CCN(c2cc3c(cc2F)c(=O)c(C(=O)O)cn3C2CC2)CC1 | 0 | – | – | 0 | – | – | 0 | 0 | – | –
CCn1cc(C(=O)O)c(=O)c2cc(F)c(N3CCNC(C)C3)c(F)c21 (stereo unspecified) | 15 | – | – | 29 | – | – | 12 | 23 | – | –
COc1c(N2C[C@@H]3CCCN[C@@H]3C2)c(F)cc2c(=O)c(C(=O)O)cn(C3CC3)c12 | 14 | – | – | 31 | – | – | 10 | 24 | – | –
COC(=O)CCCN1CCN(c2cc3c(cc2F)c(=O)c(C(=O)O)cn3C2CC2)CC1 | 9 | – | – | 17 | – | – | 6 | 16 | – | –
COc1c(N2C[C@@H]3CCCN(C(C)=O)[C@@H]3C2)c(F)cc2c(=O)c(C(=O)O)cn(C3CC3)c12 | 0 | – | – | 0 | – | – | 0 | 0 | – | –
CC(=O)NC1(c2c(F)cc3c(=O)c(C(=O)O)cn4c3c2OC[C@@H]4C)CC1 | 0 | – | – | 0 | – | – | 0 | 0 | – | –
O=C(O)CCCN1CCN(c2cc3c(cc2F)c(=O)c(C(=O)O)cn3C2CC2)CC1 | 0 | – | – | 0 | – | – | 0 | 0 | – | –
